Reference: the NIST ThermoML archive (doi:10.1016/j.jct.2013.11.027)
Several values for one entry are separate records, joined by “and”; a condition that tells them apart may be missing. Equal values may be shown once.

Columns and labels:
[1] = 101.33 kPa, Liquid; for speed of sound: Sing-around technique in a fixed-path interferometer; for mass density: Vibrating tube method
[2] = refractive index (Na D-line) (dimensionless); conditions: 101.33 kPa, Liquid, Standard Abbe refractometry
[3] = refractive index (Na D-line) (dimensionless); xn = mol fraction of the nth substance listed; conditions: 101 kPa, Liquid, Standard Abbe refractometry, x2 = 0
[4] = xn = mol fraction of the nth substance listed; conditions: 101 kPa, Liquid, x2 = 0; for speed of sound: Sing-around technique in a fixed-path interferometer; for mass density: Vibrating tube method

CCCCCCCC[n+]1ccn(C)c1.F[B-](F)(F)F [1-methyl-3-octylimidazolium tetrafluoroborate]
Conditions | mass density, [1] [kg/m3] | refractive index, [2] | speed of sound, [1] [m/s]
293.15 K | 1100.59 | 1.43389 | 1495.5
298.15 K | 1097.61 | 1.43296 | 1481.1
303.15 K | 1094.07 | 1.43192 | 1467.3
308.15 K | 1090.9 | 1.42939 | 1453.9
313.15 K | 1087.41 | 1.42772 | 1440.9
318.15 K | 1084.17 | 1.42684 | 1428.2
323.15 K | 1080.75 | 1.42696 | 1414.7

C1COCCO1 [1,4-dioxane]
Conditions | mass density, [1] [kg/m3] | refractive index, [2] | speed of sound, [1] [m/s]
293.15 K | 1033.5 | 1.42215 | 1367.2
298.15 K | 1027.85 | 1.41967 | 1345
303.15 K | 1022.19 | 1.41725 | 1323
308.15 K | 1016.52 | 1.4148 | 1301.1
313.15 K | 1010.83 | 1.41236 | 1279.4
318.15 K | 1005.12 | 1.40993 | 1257.8
323.15 K | 999.4 | 1.40749 | 1236.3

C1CCOC1 [tetrahydrofuran] + CCCCCCCC[n+]1ccn(C)c1.F[B-](F)(F)F
Conditions | mass density, 298.15 K [kg/m3] | mass density, 308.15 K [kg/m3] | mass density, 318.15 K [kg/m3] | refractive index, 298.15 K | refractive index, 308.15 K | refractive index, 318.15 K | speed of sound, 298.15 K [m/s] | speed of sound, 308.15 K [m/s] | speed of sound, 318.15 K [m/s]
[3] | – | – | – | 1.4042 | 1.39885 | 1.39349 | – | – | –
[4] | 882.209 | 871.159 | 859.955 | – | – | – | 1280.5 | 1232.5 | 1185.2

C1CCOC1 [tetrahydrofuran]
Conditions | mass density, [1] | refractive index, [2] | speed of sound, [1] [m/s]
293.15 K | 888.69 kg/m3 | 1.40696 | 1304.6
298.15 K | 882.21 kg/m3 and 882.209 kg/m3 | 1.4042 | 1280.5
303.15 K | 877.7 kg/m3 | 1.40157 | 1256.4
308.15 K | 872.16 kg/m3 and 871.159 kg/m3 | 1.39885 | 1232.5
313.15 K | 866.58 kg/m3 | 1.39623 | 1208.8
318.15 K | 860.96 kg/m3 and 859.955 kg/m3 | 1.39349 | 1185.2
323.15 K | 855.29 kg/m3 | 1.39083 | 1161.7

C1CCOC1 [tetrahydrofuran] + CCCCCCn1cc[n+](C)c1.F[B-](F)(F)F
Conditions | mass density, 298.15 K [kg/m3] | mass density, 308.15 K [kg/m3] | mass density, 318.15 K [kg/m3] | refractive index, 298.15 K | refractive index, 308.15 K | refractive index, 318.15 K | speed of sound, 298.15 K [m/s] | speed of sound, 308.15 K [m/s] | speed of sound, 318.15 K [m/s]
[3] | – | – | – | 1.4042 | 1.39885 | 1.39349 | – | – | –
[4] | 882.209 | 871.159 | 859.955 | – | – | – | 1280.5 | 1232.5 | 1185.2

C1COCCO1 [1,4-dioxane] + CCCCCCn1cc[n+](C)c1.F[B-](F)(F)F
Conditions | mass density, 298.15 K [kg/m3] | mass density, 308.15 K [kg/m3] | mass density, 318.15 K [kg/m3] | refractive index, 298.15 K | refractive index, 308.15 K | refractive index, 318.15 K | speed of sound, 298.15 K [m/s] | speed of sound, 308.15 K [m/s] | speed of sound, 318.15 K [m/s]
[3] | – | – | – | 1.41967 | 1.4148 | 1.40993 | – | – | –
[4] | 1027.85 | 1016.52 | 1005.12 | – | – | – | 1345 | 1301.1 | 1257.8

C1COCCO1 [1,4-dioxane] + CCCCCCCC[n+]1ccn(C)c1.F[B-](F)(F)F
Conditions | mass density, 298.15 K [kg/m3] | mass density, 308.15 K [kg/m3] | mass density, 318.15 K [kg/m3] | refractive index, 298.15 K | refractive index, 308.15 K | refractive index, 318.15 K | speed of sound, 298.15 K [m/s] | speed of sound, 308.15 K [m/s] | speed of sound, 318.15 K [m/s]
[3] | – | – | – | 1.41967 | 1.4148 | 1.40993 | – | – | –
[4] | 1027.85 | 1016.52 | 1005.12 | – | – | – | 1345 | 1301.1 | 1257.8

CCCCCCn1cc[n+](C)c1.F[B-](F)(F)F [1-hexyl-3-methylimidazolium tetrafluoroborate]
Conditions | mass density, [1] [kg/m3] | refractive index, [2] | speed of sound, [1] [m/s]
293.15 K | 1148.76 | 1.43308 | 1509.3
298.15 K | 1145.11 | 1.43167 | 1496.7
303.15 K | 1141.47 | 1.43029 | 1484.3
308.15 K | 1137.71 | 1.4289 | 1472
313.15 K | 1134.09 | 1.42752 | 1459.8
318.15 K | 1130.49 | 1.42612 | 1447.7
323.15 K | 1126.89 | 1.42474 | 1435.7
